{
  "source": "patent US20240082272A1",
  "about": "“COMPOSITIONS AND METHODS FOR TREATING WNT-DRIVEN CANCER” (The Regents of the University of Michigan, priority 2020, published 2024)",
  "key": {"[1]": {"test_system": "NCI-H295R", "experiment": "RNA-seq transcriptome of NCI-H295R after drug treatment", "assay_type": "cell-based", "conditions": "for differentially expressed genes overlapping between EZH2i and CBPi: 96-hour IC-50 administration", "protocol": "FIG. 6. Forskolin induces faithful zF differentiation and steroidogenesis in NCI-H295R. […] The induction of immediate early response programs is consistent with known mechanisms of action of PKA.\n(§1) FIG. 21. EZH2i and CBPi redundantly disrupt the NCI-H295R transcriptome. […] Right, gene expression changes induced by EZH2i and CBPi are strongly correlated. […] C.\nTo evaluate if EZH2i disrupted zF differentiation, the NCI-H295R was treated with the zF differentiation agent forskolin and the transcriptome was profiled by RNA-seq. Despite that CIMP-high as a class is at the zF differentiation maximum across human ACC (FIG. 5), the presence of mutant CTNNB1 in this cell line and high levels of nuclear β-catenin are likely to enable faithful responsiveness to forskolin and refractory response to Wnt/β-catenin stimulants, analogously to the Y1 cell line.\nThe NCI-H295R response to CBPi was evaluated by RNA-seq and compared to the NCI-H295R response to EZH2i. […] Similarly to EZH2i, CBPi induces downregulation of all core modules that define CIMP-high ACC (FIG. 22). Taken together, the results point to adrenocortical differentiation as a targetable therapeutic vulnerability selected for in CIMP-high ACC."}, "[2]": {"test_system": "subcutaneous, immunodeficient xenograft model of adrenal cancer", "experiment": "Subcutaneous xenograft model of adrenal cancer", "assay_type": "in vivo, mouse", "conditions": "200 mg/kg PO daily, compared to vehicle", "protocol": "To test if disruption of SF1/β-catenin complexes in vivo can cause dedifferentiation (Example 1 and 2) and disrupt tumor growth, the impact of EZH2 inhibition on a xenograft model derived from the Borges et al. Oncogene 2020 genetically engineered mouse model detailed in FIG. 25 was assayed."}, "[3]": {"test_system": "HSD3B2", "experiment": "HSD3B2 expression by qPCR in NCI-H295R", "assay_type": "cell-based", "conditions": "doses under the IC-50", "from_the_text": "FIG. 7. EZH2i reverses zF differentiation. […] Representative experiment shown, n>3. C.\nas §1"}, "[4]": {"test_system": "NCI-H295R, ATC7L, and Y1", "experiment": "Viability of ACC cell lines with CBPi alone or combined with EZH2i", "assay_type": "cell-based", "conditions": "increasing doses of CBPi combined with EZH2i at the IC-50 dose for each cell line; all ACC cell lines", "protocol": "FIG. 20. EZH2i and CBPi are synergistic in ACC cell lines. NCI-H295R, ATC7L, and Y1 were treated with increasing doses of CBPi (PRI-724), alone or in combination with EZH2i at the IC-50 dose for each cell line (EZH2i viability curves for ATC7L and Y1 not shown).\nACC cell lines were treated with a specific and irreversible inhibitor of the H3K27 acetyltransferase CBP (PRI-724 (Kahn, 2014)). CBP regulates H3K27ac deposition genome-wide including at enhancers, and CBP-dependent H3K27ac deposition is required for enhancer activity (Merika et al., 1998; Raisner et al., 2018). Cell lines received the CBP inhibitor (CBPi) either alone or combination with EZH2i at the determined IC-50 dose for that cell line."}},
  "data": [
    {"smiles": "CCN(c1cc(-c2ccc(CN3CCOCC3)cc2)cc(C(=O)NCc2c(C)cc(C)[nH]c2=O)c1C)C1CCOCC1", "note": "[EPZ-6438]", "values": [
      {"measurement": "differentially expressed genes overlapping between EZH2i and CBPi", "setting": "[1]", "result": "~70", "unit": "%"},
      {"measurement": "tumor growth", "setting": "[2]", "result": "decreases tumor growth"},
      {"measurement": "expression of SF1", "setting": "[2]; immunohistochemistry", "result": "decreasing expression of SF1"}
    ]},
    {"smiles": "C[C@H]1[C@H]2N(C(=O)CN(C)N2C(=O)NCc2ccccc2)[C@@H](Cc2ccc(OP(=O)(O)O)cc2)C(=O)N1Cc1cccc2cccnc12", "note": "[PRI-724]", "values": [
      {"measurement": "HSD3B2 expression", "setting": "[3]", "result": "dose-dependent downregulation"},
      {"measurement": "steroidogenesis (RNA-seq)", "setting": "[1]", "result": "potent downregulation of steroidogenesis"},
      {"measurement": "differentially expressed genes overlapping between EZH2i and CBPi", "setting": "[1]", "result": "~70", "unit": "%"},
      {"measurement": "loss of viability in combination", "setting": "[4]", "result": "synergistic"}
    ]}
  ]
}
